Series [1] can be described thus: (§1) Evaluation of pharmacokinetic parameters for Olanzapine after single oral dose of Olanzapine tablet. The series is classed as ADME, organism-based. To be noted: human, in vivo, regimen Single dose.
For series [2], the system named is Homo sapiens. The description is as §1. The format is ADME, organism-based. To be noted: in vivo, po, dosed compound id 18, dosed compound name OLANZAPINE, regimen Single dose, tissue Plasma.
Where [3] appears, read: dosed compound id 18, dosed compound name OLANZAPINE, tissue Plasma.

Regarding `Cc1cc2c(s1)Nc1ccccc1N=C2N1CCN(C)CC1` [OLANZAPINE], in series [1] (setting [3]), the Tmax (as a rule, the time at which the peak concentration occurs) was 6 h and the half-life (as a rule, the time needed for the level to fall by half in the phase considered) was 30 h. The CL/F in series [1] (dosed compound id 18, dosed compound name OLANZAPINE, tissue Plasma, read-out: CL(app) (converted)) was 417 mL/min. In series [1] (dosed compound id 180, dosed compound name C-14 OLANZAPINE, tissue Urine, read-out: Excretion), the dose excreted was found to be 7%. Further, the Vd in series [2] is 1000 L.

These data come from ChEMBL document CHEMBL3832065, “DailyMed|setid=d976599a-0ee0-4fa4-afe6-bdfbca570afe | OLANZAPINE - olanzapine tablet, film coated|Rebel Distributors Corp”.
